Reference: US20250241901A1, “ACTIVATION OF MNRR1 / CHCHD2 AS A THERAPEUTIC TARGET FOR MITOCHONDRIA ASSOCIATED DISORDERS” (Wayne State University, priority 2024, published 2025)

Tests used:
[1] = tested on: intra-amniotic LPS-induced preterm labor and birth; experiment: Murine model of intra-amniotic LPS-induced preterm labor and birth; type: in vivo, mouse
Experimental: FIGS. 2A-2F. Nitazoxanide prevents preterm delivery and improves neonatal mortality in vivo. (FIG. 2A) Schematic illustration depicting the administration of nitazoxanide (marketed under the commercial name Alinia) and LPS in the murine model of preterm birth. (FIG. 2B) Gestational length of mice was obtained using video-monitoring until delivery (n=6-8 animals). (FIG. 2C) Neonatal mortality was determined by calculating the number of dead pups over total litter size (n=6-8 animals). […] No pups from LPS-injected dams survived beyond week 0 of birth. (FIG. 2E) MNRR1 transcript levels were measured in mouse decidual tissue (17.5 dpc). Actin was used as a housekeeping gene to normalize expression (n=4 animals for all except PBS+N, where n=3). (FIG. 2F) Equal amounts of whole placental lysates were separated on an SDS-PAGE gel and probed for MNRR1 levels. Actin was used as a loading control. Gel is representative of data obtained from 2 animals. Keyfor FIGS. 2B, 2C, and 2E: PBS, phosphate buffered saline injection; LPS, lipopolysaccharide injection; PBS+N, PBS injection with oral gavage of nitazoxanide; LPS+N, LPS injection with oral gavage of nitazoxanide. Significance: *, p<0.05; **, p<0.01.
Animal model of intra-amniotic LPS-induced preterm labor and birth: Nitazoxanide (Alinia®; ROMARK, Tampa, FL, USA) was dissolved in sterile injectable water. The nitazoxanide volume was mouse weight dependent (100 μL of nitazoxanide solution at 200 mg/kg was administered for every mouse weight of 10 g). […] Dams were anesthetized on 16.5 dpc by inhalation of 2-3% (Fluriso™ (Isoflurane, USP), Vetone Boise, ID, USA) and 1-2 L/min of oxygen in an induction chamber. Anesthesia was maintained with a mixture of 1.5-2% isoflurane and 1.5-2 L/min of oxygen. Dams were positioned on a heating pad and stabilized with adhesive tape. Fur removal from the abdomen and thorax was performed by applying Nair cream (Church & Dwight Co., Inc., Ewing, NJ, USA) to those areas. Body temperature was detected with a rectal probe (VisualSonics Inc., Toronto, Ontario, Canada) and maintained in the range of 37±1° C. Respiratory and heart rates were monitored by electrodes embedded in the heating pad. An ultrasound probe was fixed and mobilized with a mechanical holder, and the transducer was slowly moved toward the abdomen. […] Following injection, dams were monitored by using a video camera with infrared light (Sony) until delivery. Video monitoring allowed for determination of gestational length, which was calculated from the presence of the vaginal plug (0.5 dpc) until the observation of the first pup in the cage bedding. […] The rates of neonatal mortality at birth were calculated as the number of pups found dead among the total litter size. […]

MNRR1 = MNRR1 immunofluorescence in MDAMB468 cells; type: cell-based, human; settings: MDAMB468, 10 μM, 24 h
Experimental: FIGS. 4A-4B: High throughput screen to identify MNRR1 activators. FIG. 4A: Campaign view representing compounds that activate MNRR1. Control levels are represented as a dotted line. Each compounds is shown as a small dot and nitazoxanide is highlighted as a large dot. FIG. 4B: MDAMB468 cells treated with Vehicle (DMSO) or nitazoxanide (10 μM) for 24 h were immunostained (MNRR1=orange, DAPI=blue) and imaged at 63λ using a confocal microscope. The scale bar represents 200 μm.
Immunofluorescence: Cells plated on glass cover slips were fixed with 3.7% formaldehyde (prepared in 1× PBS) at room temperature for 15 min, followed by permeabilization with 0.15% Triton X-100 (prepared in distilled water) for 2 min, and then blocked with 5% bovine serum albumin (BSA) (prepared in 1× PBS, 0.1% TWEEN-20 (PBST)) for 1 h at room temperature. Cells were washed with PBST then incubated for 1 h at room temperature in primary antibody solution containing Coralite® 594 conjugated mouse monoclonal anti-CHCHD2 IgG (1:100, Proteintech, Cat. No. CL594-66302) prepared in PBST. Cells were washed 3 times with PBST for 5 min each and mounted with Vectashield vibrance with DAPI (Cat. #H-1800-10, Vector Labs, Newark, CA). […] Corrected total fluorescence for each field to determine MNRR1 content was calculated using FIJI (National Institutes of Health).

[2] = 200 mg/kg oral gavage, intra-amniotic LPS 16.5 dpc

Q: What does the source list for `CC(=O)Oc1ccccc1C(=O)Nc1ncc([N+](=O)[O-])s1` [nitazoxanide, Nitazoxanide]?
A: neonatal mortality at birth ([1]; 200 mg/kg oral gavage, LPS-injected dams, compared to controls): significantly reduced; LPS-induced preterm birth (delivery <18.5 dpc) [1, 2]: preventing LPS-induced preterm birth (delivery <18.5 days post coitum (dpc)) in all pregnant dams; gestational age [1, 2]: extended; neonates surviving up to 3 weeks ([1]; neonates born to LPS-injected dams treated with nitazoxanide): almost one-half; MNRR1 level (MNRR1): increase of MNRR1
